Columns and labels:
[1] = molecular target: T1, Syk kinase (Homo sapiens, UniProt P43405); assay: In vitro inhibitory effect on Syk kinase (HTRF enzymatic experiment); format: biochemical; conditions: ATP 2 μM, read-out: IC50 (nM) for inhibition of Syk enzyme
T1 construct: purchased Invitrogen PV3857
Source text: The interaction between the substrate and the enzyme was detected by HTRF, using the IC50 value of the compound as an indicator to evaluate the inhibitory effect of the compound on Syk kinase.
• Syk kinase (Invitrogen, PV3857) • DTT (Sigma #43815) • ATP (Sigma #A7699) • MgCl2 (Sigma #63020) • MnCl2 (Sigma #M1787) • EDTA (Invitrogen #15575-020) • HEPES Buffer (Invitrogen #15630-080) • HTRF® KinEASE™ TK (Cisbio #62TKOPEC, 20000 tests) • Low volume, 384-well, white polystyrene plate (Greiner #784075) • 384 Well Microplates (Greiner #781946) • Centrifuge (Eppendorf #5810R) • Pipette (Eppendorf) • Pipette (Greiner) • Pipette gun (Eppendorf) • Mutidorp Pipette • POD 810 Plate Assembler Automatic Microplate Pretreatment System • Envision Reader • Experimental Steps and Methods: • a) Compound dilution and plate-making: • 1) The compound powder was weighed, dissolved in a certain amount of DMSO at an initial concentration of 10 mM. • 2) The compound was diluted to a concentration of 0.74 mM, and plated with POD18, 135 nL per well, the starting compound concentration was 10 μM, and there were 11 concentration points, with 3-fold descending serial dilutions. • b) Enzyme-substrate reaction stage: • 1) Preparation and dilution of the experimental buffer: the 5×HTRF Buffer in the kit was diluted to 1×, and specified amounts of DTT and MgCl2 solutions were added for use. • 2) SYK enzyme reaction solution was prepared with 1×HTRF Buffer so that the final reaction concentration of SYK kinase was 0.0156 ng/μL. • 3) TK-Substrate-biotin/ATP mixture was prepared so that the final substrate concentration was controlled at 0.2 μM. ATP concentration was controlled at 2 μM. • 4) The solution and the mixture were added with a Mutidorp pipette, SYK enzyme solution and TK-Substrate-biotin/ATP mixture were each added 5 μL per well, and incubated with 23 solution for 1 hour. • c) Detection stage: • 1) 13.33 mL of ethylenediaminetetraacetic acid solution was added to the detection buffer of the kit, and specified amounts of Eu-labeled antibody and XL-665 were added to prepare the detection solution. • 2) The solution was added with a Mutidorp pipette, 10 μL of detection solution per well, and incubated with 23 solution for 1 hour. The reaction of the enzyme and substrate mixture was stopped. • 3) After centrifugation, the reading was obtained on Envision. • d) Data analyzation: the data was analyzed using XL-Fit and the IC50 value of the compound was calculated.

[2] = molecular target: VEGFR2 kinase (KDR enzyme) (Homo sapiens, UniProt P35968); assay: In vitro inhibitory effect on VEGFR2 kinase (ADP-Glo enzymatic experiment); format: biochemical; conditions: read-out: IC50 (nM) for inhibition of VEFGR2 enzyme
Chain of VEGFR2 kinase (KDR enzyme) (P35968 20-1356, species assumed): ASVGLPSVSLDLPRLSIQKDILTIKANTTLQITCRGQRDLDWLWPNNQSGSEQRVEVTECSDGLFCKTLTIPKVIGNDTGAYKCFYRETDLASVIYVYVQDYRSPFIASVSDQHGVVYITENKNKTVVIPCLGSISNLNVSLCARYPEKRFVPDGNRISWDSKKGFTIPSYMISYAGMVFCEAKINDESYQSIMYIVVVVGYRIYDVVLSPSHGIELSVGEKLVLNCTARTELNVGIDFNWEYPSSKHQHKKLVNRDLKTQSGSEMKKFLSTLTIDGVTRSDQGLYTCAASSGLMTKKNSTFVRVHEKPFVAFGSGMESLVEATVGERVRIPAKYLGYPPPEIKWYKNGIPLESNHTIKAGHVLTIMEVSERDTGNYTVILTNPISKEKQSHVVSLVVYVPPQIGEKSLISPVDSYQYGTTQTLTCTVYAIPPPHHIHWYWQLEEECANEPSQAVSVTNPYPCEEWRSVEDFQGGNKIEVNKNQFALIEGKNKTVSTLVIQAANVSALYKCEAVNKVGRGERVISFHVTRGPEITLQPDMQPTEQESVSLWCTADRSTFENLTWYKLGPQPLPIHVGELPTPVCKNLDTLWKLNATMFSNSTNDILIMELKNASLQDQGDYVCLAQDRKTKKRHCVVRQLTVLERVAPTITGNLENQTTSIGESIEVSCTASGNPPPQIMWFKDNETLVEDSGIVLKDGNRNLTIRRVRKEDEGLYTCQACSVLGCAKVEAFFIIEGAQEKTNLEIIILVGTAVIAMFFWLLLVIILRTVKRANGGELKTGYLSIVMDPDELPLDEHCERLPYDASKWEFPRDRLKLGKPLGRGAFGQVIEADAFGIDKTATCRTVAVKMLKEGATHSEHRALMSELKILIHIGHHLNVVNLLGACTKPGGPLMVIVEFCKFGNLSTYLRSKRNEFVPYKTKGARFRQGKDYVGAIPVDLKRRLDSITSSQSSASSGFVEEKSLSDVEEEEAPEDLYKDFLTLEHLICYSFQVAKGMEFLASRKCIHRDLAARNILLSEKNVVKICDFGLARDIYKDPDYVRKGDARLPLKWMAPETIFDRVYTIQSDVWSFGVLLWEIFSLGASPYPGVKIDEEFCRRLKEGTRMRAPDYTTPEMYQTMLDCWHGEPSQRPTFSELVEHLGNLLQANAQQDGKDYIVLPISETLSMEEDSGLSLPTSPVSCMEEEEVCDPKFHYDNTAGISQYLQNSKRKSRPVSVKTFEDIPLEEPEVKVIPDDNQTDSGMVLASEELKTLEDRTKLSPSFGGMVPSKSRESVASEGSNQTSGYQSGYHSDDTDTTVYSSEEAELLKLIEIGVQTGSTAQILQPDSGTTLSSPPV
Procedure: The VEGFR2 kinase assay kit is intended for measuring VEGFR2 kinase activity using Kinase-Glo®MAX as a detection reagent, and compound screening and analysis were conducted using the IC50 value of the compound as an indicator.
The ADP-GLO™ Kinase Assay is an analytical reaction in which a luminescent kinase is used to determine the adenosine diphosphate formed by the kinase; ADP is converted to ATP, i.e., an optical signal is generated by Ultra-Glo™ luciferase. The optical signal is positively correlated with ADP quantity and kinase activity. This assay is ideal for determining the activity of the compound, making it ideal for primary screening and kinase selectivity analysis. The ADP-Glo™ Kinase Assay can be used to monitor the activity of virtually any ADP-producing enzyme such as a kinase orATPase: • 1) The enzyme, substrate, ATP and inhibitor were diluted in a kinase buffer; • 2) 384-well plate: 1 μL of inhibitor or (5% dimethyl sulfoxide solution), 2 μL of KDR enzyme, 2 μL of matrix/ATP mixture; • 3) the mixture was incubated at room temperature for 60 minutes; • 4) 5 μL of ADP-GLO™ reagent was added; • 5) the mixture was incubated for 40 minutes at room temperature; • 6) 10 μL of kinase detection reagent was added; • 7) the mixture was incubated at room temperature for 30 minutes; • 8) the luminescence was recorded (integration time 0.5-1 sec). The data was shown in relative light units (rlu), which was directly related to the amount of […]. There was correlation between the percent of the conversion from ATP to ADP for each kinase amount and the corresponding signal-to-background ratio. • 9) Data analysis: (a) KDR enzyme was titrated with 50 μM of ATP, and the luminescent signal produced by KDR enzyme was shown; (b) staurosporine dose response was generated with 1.5 ng of KDR to determine the IC50 value of the inhibitor.

[3] = Pharmacokinetic evaluation of ocular administration to mouse (cornea and plasma exposure); format: in vivo, C57BL/6 mice; conditions: eye drop, 0.1 mg/animal
Procedure: In order to investigate the eye-to-blood ratio of the in vivo exposure amounts of the compound after ocular administration thereof, LC-MS/MS method was used in this study to determine the exposure amounts of compound 1 in cornea and plasma after the ocular administration of the compound 1 to a mouse, where compound screening and analysis were conducted by using the drug concentration at the same time point as an indicator.
C57BL/6 mice, weighing 18-20 g, were randomly divided into 4 groups after 3-5 days of acclimatization, with each group including three mice, and the mice were administered by eye drops at 5 μL for each eye.
The test animals (C57BL/6 mice) were not fasted before administration, but drank water freely before and during the experiment.
About 0.05 mL of blood was collected from saphenous vein at 1 hour and 3 hours following the eye drop administration, anticoagulated with commercial EDTA-K2, and transferred to a centrifuge for centrifugation. After blood sampling from saphenous vein, the corneas were collected under isoflurane anesthesia. At each of the time points, the plasma and corneas of the mice in the same group were pooled for detection.
Plasma: within 30 minutes the plasma was transferred to be subject to centrifugation at 4° C., 3200 g for 10 minutes, and 20 μL of plasma was taken from each mouse. At each time point, the plasma of the mice in the same group was pooled for detection.
Cornea: the cornea was removed, rinsed twice with pre-cooled normal saline, dried with a paper towel, and put into a 1.5 mL centrifuge tube, weighed with an analytical balance by a peeling method, and finally the body weight was weighed. At each time point, the corneas of the mice in the same group were pooled for detection.
Corneal homogenization method: 1 g of cornea was added to 9 mL of pre-cooled methanol: 15 mM phosphate buffer solution=1:2, an ultrasonic cell disruptor (No. 2 amplitude rod, amplitude 50%, working for 5 s, stopping for 5 s, and ultrasonic treatment for 3 min) was used.

c1cn2c(n1)c(Nc1ccc(N3CCOCC3)cc1)nc1ccc(-c3cn[nH]c3)cc12 [Compound 1]
IC50 [1]: 15 nM
IC50 [2]: 23 nM
Kp at 1 h ([3]; C57BL/6, cornea / plasma, other: eye drops (ocular administration), 1 hour, read-out: eye-to-blood ratio): 641
Kp at 3 h ([3]; C57BL/6, cornea / plasma, other: eye drops (ocular administration), 3 hours, read-out: eye-to-blood ratio): 427
concentration at 1 h ([3]; C57BL/6, plasma, other: eye drops (ocular administration), 1 hour, read-out: Drug concentration in plasma): 10.4 nM
concentration at 3 h ([3]; C57BL/6, plasma, other: eye drops (ocular administration), 3 hours, read-out: Drug concentration in plasma): 6.8 nM
Drug concentration in corneal ([3]; 1 hour): 6670 nmol/kg
Drug concentration in corneal ([3]; 3 hours): 2910 nmol/kg

— US12637469B2, “1H-pyrazole derivative and application thereof as dual target inhibitor of Syk and VEGFR2” (Ocumension Therapeutics (Suzhou) Co., Ltd., priority 2020, dated 2026)
